Assay [1] deals with Wistar-strain rats (hippocampus EEG). As to the kind of experiment: Neurotropic effect: EEG activity after injection into the hippocampus of freely moving rats. The format is in vivo, rat. The note with it: 100 ng to 10 μg in 2 μl saline injected unilaterally into the hippocampus. The procedure:
(I) A neurotropic effect of the peptide compounds of the present invention was examined by the method of Maria-S. Oitzl and J. P. Huston [Brain research, 308, 33-42 (1984)].
Wistar-strain rats were implanted with a set of electrodes for recording EEG under anesthesia with pentobarbital (50 mg/kg, i.p.). The electrodes were bilaterally implanted into the hippocampus (Bregma -2.7 mm, Lateral 2.5 mm, Depth 2.8 mm) by reference to THE RAT BRAIN IN STEREOTAXIC COODINATES (George Paxion & Charles Watson, Academic press). Chemitorode, a injection guide cannula uniting with electrode for recording, was implanted in the temporoparietal left hole. The test drugs were unilaterally injected into the hippocampus of freely moving rats to examine their effect on EEG activity.
The rats were kept for about a week for a cure, and then used for the experiments. After the EEG activity was recorded for dozens of minutes in a normal state, 100 ng to 10 μg of the test drug dissolved in 2 μl of saline was injected into the hippocampus through the injection guide cannula. Only saline was used as a control. Immediately after the administration it began to record the EEG activity.

The test system of a further assay is ddY-strain male mice. The assay is described as follows: Analgesic effect, modified Randall-Selitto's test (Tale pressure method). The format is in vivo. The note with it: 0.1 μmole/mouse, intracisternal injection, test at 5 min after injection, groups of 10 mice; control 1.17 ± 0.12. On the procedure:
Groups of 10 ddY-strain male mice weighing 24-30 g were used for measurement of analgesic effect of the peptide compounds of the present invention by modified Randall-Selitto's test (Tale pressure method). Analgesic test was performed at 5 min after intracisternal injection of the test drugs.

`NCCCC(=O)O` [GABA, γ-Aminobutyric acid]: in assay [1], the “time after administration at which characteristic EEG spikes appeared” value is “a few minutes” and the “time after administration until which the EEG spikes continued” value is recorded as “about 25 min”. Further, the “Pain Index” value in the assay with ddY-strain male mice is on record as 1.65 ± 0.13.
